Values quoted from earlier work as cited in patent US20130149346A1, “DABIGATRAN ETEXILATE-CONTAINING PHARMACEUTICAL COMPOSITION” (ratiopharm GmbH Graf-Arco-Strasse 3, priority 2010, published 2013).

Conditions: in the acidic environment

pH-dependent solubility: greatly increased
SMILES: CCCCCCOC(=O)NC(=N)c1ccc(NCc2nc3cc(C(=O)N(CCC(=O)OCC)c4ccccn4)ccc3n2C)cc1 [dabigatran etexilate, 3-[(2-{[4-(hexyloxycarbonylamino-imino-methyl)-phenylamino]-methyl}-1-methyl-1H-benzimidazole-5-carbonyl)-pyridine-2-yl-amino]-propionic acid ethyl ester]
